# Laboratory results: patent US20250171404A1, “PCNA INHIBITORS AND USES THEREOF” (CITY OF HOPE, priority 2022, published 2025)
# Tests used:
# [1] = test system: SK-N-DZ neuroblastoma cells; assay: Apoptosis (sub-G1, TUNEL assay), cancer cells; format: cell-based, human; settings: 500 nM, 24 h
# Experimental: (§1) FIGS. 3A-3D. Therapeutic properties of AOH1996. FIG. 3A: Normal cells (7SM0032) or cancer cells (SH-SY5Y and SK-N-BE(2)c) cells were fixed, stained with PI, and analyzed by flow cytometry following treatment with 500 nM AOH1996 for the indicated time. FIG. 3B: SK-N-DZ neuroblastoma cells and nonmalignant 7SM0032 stem cells were incubated with 500 nM AOH1996 for 24 h. Then, after being fixed on slides, cell apoptosis were analyzed by a TUNEL assay. Left: TMR fluorophore attached to the free ends of DNA indicates cells undergoing apoptosis. DAPI stained nuclei also shown. Right: Average abundance ±S.D. of apoptotic 7SM0032 (black histogram) and SK-N-DZ (grey histogram) cells relative to the total number of cells are shown in 5 randomly selected fields. […] The relative number of colonies determined in triplicates for each treatment condition were averaged and graphed ±SDs (*, P<0.01). […] Cell growth was measured as the percentage of cell confluence by imaging every 6 h for a total of 48 h.
# (§2) Cell apoptosis was measured on a chamber slide at a seeding density of 1×10^5/mL. After treatment with 500 nM AOH1996 for 24 h, cells were fixed and analyzed by a TUNEL assay using the TMR red in situ cell death detection kit (Roche Diagnostics).
# [2] = test system: SK-N-AS cells homozygous of the Y418A mutant RPB1 alleles; assay: Growth of RPB1 Y418A (APIM) mutant cell lines; format: cell-based, human; settings: 72 hrs; vs parent SK-N-AS
# H82 xenograft tumors = assay: Xenograft tumor model, small-cell lung cancer; format: in vivo, mice; settings: 40 mg/kg twice daily, oral, vs vehicle
# Experimental: FIGS. 4A-4H. Pharmacokinetics and anti-tumor growth activity of AOH1996 in vivo. FIG. 4A: After oral administration, the plasma concentrations of AOH1996 from three male and three female ES1^e/SCID mice at the indicated time points were averaged and graphed ±S.D. The inset contains PK parameters determined by a standard noncompartmental method. FIG. 4B: A similar PK study of AOH1996 was performed in dogs. FIGS. 4C-4E: Mice bearing the xenograft tumors of neuroblastoma (FIG. 4C: SK-N-BE(2)c), breast cancer (FIG. 4D: MDA-MB-468), and small-cell lung cancer (FIG. 4E: H82) were given vehicle only (black) or 40 mg/kg of AOH1996 (grey) twice daily immediately after the first measurement. Tumor sizes were measured by a dial caliper each week. Tumor volumes (0.4×L×W^2) were averaged and graphed ±S.E. (*, P<0.01). FIG. 4F: Animal body weight was monitored throughout the studies as an indicator of toxicity. […] FIG. 4G: The levels of phosphor-Chk1 (pChk1) and γH2A.X in SK-N-BE(2)c derived tumor samples were analyzed by IHC. […] The p values determined by the Log-rank (Mantel-Cox) test between combination treatment and each of the control groups are p=0.0003 (Combination vs. NoRx), p=0.005 (Combination vs. AOH1996 alone), and p=0.024 (Combination vs. CPT-11 alone).
# In vivo tumor model. […] Tumor size and animal weight were measured weekly. […]
# [3] = test system: SK-N-DZ neuroblastoma cells; assay: Clonogenic assay with cisplatin; format: cell-based, human; settings: 500 nM AOH1996, 18 hours
# Experimental: as §1, with “fields. FIG. 3C: Human SK-N-DZ neuroblastoma cells were treated with or without the indicated concentrations of cisplatin in the absence or presence of 500 nM of AOH1996 for 18 hours.” for “fields.”
# Clonogenic Assay. […] The colonies were stained with 0.5% crystal violet and counted. Synergy between AOH1996 and cisplatin was evaluated using combination indices (Cl) based on the Bliss independence model [C]=(EA+EB−EA*EB)/EAB] […]
# 7SM0032 = assay: Apoptosis (TUNEL assay), nonmalignant cells; format: cell-based, human; settings: 500 nM, 24 h; 7SM0032 cells
# Experimental: as §1, §2
# γH2A.X = γH2A.X Western blot (DNA damage marker); format: cell-based, human
# [4] = test system: SK-N-BE(2)c xenograft tumors; assay: Xenograft tumor model, neuroblastoma; format: in vivo, mice
# Experimental: FIGS. 4A-4H. Pharmacokinetics and anti-tumor growth activity of AOH1996 in vivo. FIG. 4A: After oral administration, the plasma concentrations of AOH1996 from three male and three female ES1^e/SCID mice at the indicated time points were averaged and graphed ±S.D. The inset contains PK parameters determined by a standard noncompartmental method. FIG. 4B: A similar PK study of AOH1996 was performed in dogs. FIGS. 4C-4E: Mice bearing the xenograft tumors of neuroblastoma (FIG. 4C: SK-N-BE(2)c), breast cancer (FIG. 4D: MDA-MB-468), and small-cell lung cancer (FIG. 4E: H82) were given vehicle only (black) or 40 mg/kg of AOH1996 (grey) twice daily immediately after the first measurement. Tumor sizes were measured by a dial caliper each week. Tumor volumes (0.4×L×W^2) were averaged and graphed ±S.E. (*, P<0.01). FIG. 4F: Animal body weight was monitored throughout the studies as an indicator of toxicity. Shown is a typical study results from the study of the SK-N-BE(2)c tumor model described in (FIG. 4C). FIG. 4G: The levels of phosphor-Chk1 (pChk1) and γH2A.X in SK-N-BE(2)c derived tumor samples were analyzed by IHC. Shown are representative images taken from tumors treated by vehicle only or by 40 mg/kg AOH1996. FIG. 4H: ES1^e/SCID mice bearing SK-N-AS derived xenograft tumors were treated with either 80 mg/kg of AOH1996 (black, n=7) for 8 d beginning 8 d after tumor implantation, 15 mg/kg of CPT-11 (n=8) for 3 d beginning 12 d after tumor implantation, or both agents (combination, n=8) under the same dosages and schedules as they were dosed alone. […] The p values determined by the Log-rank (Mantel-Cox) test between combination treatment and each of the control groups are p=0.0003 (Combination vs. NoRx), p=0.005 (Combination vs. AOH1996 alone), and p=0.024 (Combination vs. CPT-11 alone).
# In vivo tumor model. […] Tumor size and animal weight were measured weekly. At the end of the experiment, tumors were isolated from sacrificed mice and analyzed by immunohistochemistry staining with antibodies specific for phosphor-Chk1 and γH2A.X.
smiles,measurement,setting,value
"COc1cccc(Oc2ccccc2NC(=O)CNC(=O)c2cccc3ccccc23)c1 [AOH1996, N-(2-((2-(3-methoxyphenoxy)phenyl)amino)-2-oxoethyl)-1-naphthamide]","apoptosis (sub-G1 population, TUNEL positivity)",[1],induced apoptosis
same,sensitivity of RPB1 Y418A mutant cells to growth inhibition,[2],significantly less sensitive to growth inhibition by AOH1996 than the parent cells
same,tumor burden,H82 xenograft tumors,significantly reduced tumor burden
same,sensitivity to cisplatin (colony formation),[3],"increased the sensitivity of cancer cells to genotoxic agents, including cisplatin"
same,apoptosis,7SM0032,Nor does it induce apoptosis in 7SM0032 cells
same,"γH2A.X levels, cancer vs non-malignant cells","γH2A.X; 500 nM, SK-N-BE(2)c","caused accumulation of DNA damages as measured by γH2A.X levels in the SK-N-BE(2)c cancer cells, but not in non-malignant cells"
same,"γH2A.X levels, wildtype RPB1 vs Y418A mutant cells","γH2A.X; SK-N-AS, overnight",caused substantially more DNA damages as measured by γH2A.X levels in cells containing wildtype RPB1 allele than in cells homozygous of the Y418A mutant allele
same,pharmacodynamics markers in tumors (immunohistochemistry),[4]; 40 mg/kg AOH1996 vs vehicle,Focal staining of γH2A.X and phospho-Chk1 were observed
same,tumor burden,"[4]; 40 mg/kg twice daily, oral, vs vehicle",significantly reduced tumor burden
same,"death, body weight","[4]; xenograft studies, 40 mg/kg twice daily",did not cause any death or significant weight loss
